Test: xn = mol fraction of the nth substance listed
Settings: Liquid, Vibrating tube method

CN(C)C=O [dimethylformamide] + O=C=O
Settings	mass density [kg/m3]
323.1 K, 12012 kPa, x2 = 0.4502	948.99
323.1 K, 12998 kPa, x2 = 0.4068	949.23
323.1 K, 13022 kPa, x2 = 0.4502	950.22
323.1 K, 13979 kPa, x2 = 0.4068	950.27
323.1 K, 14010 kPa, x2 = 0.4502	951.35
323.1 K, 15004 kPa, x2 = 0.4068	951.37
323.1 K, 15007 kPa, x2 = 0.4502	952.52
323.1 K, 16001 kPa, x2 = 0.4068	952.41
323.1 K, 16010 kPa, x2 = 0.4502	953.67
323.1 K, 16989 kPa, x2 = 0.4068	953.45
323.1 K, 17008 kPa, x2 = 0.4502	954.76
323.1 K, 18013 kPa, x2 = 0.4502	955.9
323.1 K, 18017 kPa, x2 = 0.4068	954.51
323.1 K, 18998 kPa, x2 = 0.4068	955.51
323.1 K, 19001 kPa, x2 = 0.4502	956.99
323.1 K, 19996 kPa, x2 = 0.4502	958.07
323.1 K, 20005 kPa, x2 = 0.4068	956.52
323.1 K, 20986 kPa, x2 = 0.4068	957.5
323.1 K, 21010 kPa, x2 = 0.4502	959.2
323.1 K, 22004 kPa, x2 = 0.4502	960.27
323.1 K, 22021 kPa, x2 = 0.4068	958.56
323.1 K, 22997 kPa, x2 = 0.4502	961.32
323.1 K, 22998 kPa, x2 = 0.4068	959.49
323.1 K, 23987 kPa, x2 = 0.4068	960.47
323.1 K, 23995 kPa, x2 = 0.4502	962.39
323.1 K, 25019 kPa, x2 = 0.4502	963.43
323.1 K, 25057 kPa, x2 = 0.4068	961.5
323.15 K, 5022 kPa, x2 = 0.2876	937.32
323.15 K, 6019 kPa, x2 = 0.2876	938.29
323.15 K, 7007 kPa, x2 = 0.2876	939.23
323.15 K, 8008 kPa, x2 = 0.2876	940.16
323.15 K, 9023 kPa, x2 = 0.2876	941.14
323.15 K, 10001 kPa, x2 = 0.2876	942.04
323.15 K, 11006 kPa, x2 = 0.2876	942.98
323.15 K, 12003 kPa, x2 = 0.2876	943.9
323.15 K, 13004 kPa, x2 = 0.2876	944.81
323.15 K, 14005 kPa, x2 = 0.2876	945.73
323.15 K, 14999 kPa, x2 = 0.2876	946.61
323.15 K, 15994 kPa, x2 = 0.2876	947.48
323.15 K, 17022 kPa, x2 = 0.2876	948.41
323.15 K, 17996 kPa, x2 = 0.2876	949.25
323.15 K, 19004 kPa, x2 = 0.2876	950.13
323.15 K, 20021 kPa, x2 = 0.2876	950.99
323.15 K, 21018 kPa, x2 = 0.2876	951.84
323.15 K, 22030 kPa, x2 = 0.2876	952.68
323.15 K, 23007 kPa, x2 = 0.2876	953.51
323.15 K, 24019 kPa, x2 = 0.2876	954.35
323.15 K, 25012 kPa, x2 = 0.2876	955.16
332.96 K, 10005 kPa, x2 = 0.6235	907.82
332.96 K, 10991 kPa, x2 = 0.6235	910.93
332.96 K, 12056 kPa, x2 = 0.6235	913.98
332.96 K, 13000 kPa, x2 = 0.6235	916.59
332.96 K, 14042 kPa, x2 = 0.6235	919.37
332.96 K, 15010 kPa, x2 = 0.6235	921.91
332.96 K, 15997 kPa, x2 = 0.6235	924.4
332.96 K, 17030 kPa, x2 = 0.6235	926.91
332.96 K, 18038 kPa, x2 = 0.6235	929.31
332.96 K, 19028 kPa, x2 = 0.6235	931.63
332.96 K, 20027 kPa, x2 = 0.6235	933.85
332.96 K, 21009 kPa, x2 = 0.6235	936.05
332.96 K, 22009 kPa, x2 = 0.6235	938.17
332.96 K, 23042 kPa, x2 = 0.6235	940.35
332.96 K, 24041 kPa, x2 = 0.6235	942.44
332.96 K, 25008 kPa, x2 = 0.6235	944.38
332.97 K, 13046 kPa, x2 = 0.8091	858.28
332.97 K, 14016 kPa, x2 = 0.8091	863.75
332.97 K, 15002 kPa, x2 = 0.8091	869.06
332.97 K, 16027 kPa, x2 = 0.8091	874.28
332.97 K, 17017 kPa, x2 = 0.8091	879.06
332.97 K, 18042 kPa, x2 = 0.8091	883.74
332.97 K, 19003 kPa, x2 = 0.8091	887.97
332.97 K, 20021 kPa, x2 = 0.8091	892.23
332.97 K, 21029 kPa, x2 = 0.8091	896.31
332.97 K, 22019 kPa, x2 = 0.8091	900.16
332.97 K, 23004 kPa, x2 = 0.8091	903.83
332.97 K, 24041 kPa, x2 = 0.8091	907.6
332.97 K, 24998 kPa, x2 = 0.8091	910.97
332.98 K, 8015 kPa, x2 = 0.4268	929.54
332.98 K, 9023 kPa, x2 = 0.4268	930.86
332.98 K, 9996 kPa, x2 = 0.4268	932.09
332.98 K, 11004 kPa, x2 = 0.4268	933.37
332.98 K, 12004 kPa, x2 = 0.4268	934.65
332.98 K, 13005 kPa, x2 = 0.4268	935.88
332.98 K, 13019 kPa, x2 = 0.9311	744.38
